Assay results reported in ChEMBL document CHEMBL5236548, “Marine Natural Products: A Potential Source of Anti-hepatocellular Carcinoma Drugs” (J Med Chem, 2021).
Blank lines part the entries; values can stand above or below the compound they belong to.

Legend:
SMMC-7721 [1] = test: Antitumor activity against human SMMC-7721 cells xenografted in mouse assessed as reduction in tumor volume at 20 mg/kg administered once every two days for 21 days relative to control; type: functional; set-up: scale not given: the % may be the effect or the level left; conditions: time 21 day
SMMC-7721 [2] = test: Antiproliferative activity against human SMMC-7721 cells measured after 48 hrs; type: functional, cell-based; conditions: SMMC-7721, 48 h
HepG2 [3] = test: Antimigratory activity against human HepG2 cells assessed as reduction in cell migration by cell migration assay; type: functional, cell-based
H22 [4] = test: Antitumor activity against […] cells xenografted in mouse assessed as reduction in tumor volume at 15 mg/kg, ip measured after 21 days by caliper method relative to control; type: functional; set-up: scale not given: the % may be the effect or the level left; conditions: time 21 day
Bel-7402 [5] = test: Antitumor activity against human Bel-7402 cells xenografted in mouse assessed as reduction in tumor volume at 7 mg/kg, ip administered daily for 21 days by caliper method relative to control; type: functional; set-up: scale not given: the % may be the effect or the level left; conditions: time 21 day
Bel-7402 [6] = test: Antitumor activity against human Bel-7402 cells xenografted in mouse assessed as reduction in tumor volume at 14 mg/kg, ip administered daily for 21 days by caliper method relative to control; type: functional; set-up: scale not given: the % may be the effect or the level left; conditions: time 21 day
SMMC-7721 [7] = test: Cytotoxicity against human SMMC-7721 cells incubated for 72 hrs by SRB assay; type: functional, cell-based; conditions: SMMC-7721, 72 h
[8] = Half life in Kunming mouse at 15 to 30 mg/kg measured upto 240 mins; type: ADME, organism-based; conditions: in vivo, dose 15-30 mg/kg
H22 [9] = test: Antitumor activity against […] cells xenografted in mouse assessed as reduction in tumor volume at 45 mg/kg, ip measured after 21 days by caliper method relative to control; type: functional; set-up: scale not given: the % may be the effect or the level left; conditions: time 21 day
Bel-7402 [10] = test: Antitumor activity against human Bel-7402 cells xenografted in mouse assessed as reduction in tumor volume at 28 mg/kg, ip administered daily for 21 days by caliper method relative to control; type: functional; set-up: scale not given: the % may be the effect or the level left; conditions: time 21 day
H22 [11] = test: Antitumor activity against […] cells xenografted in mouse assessed as reduction in tumor volume at 5 mg/kg, ip measured after 21 days by caliper method relative to control; type: functional; set-up: scale not given: the % may be the effect or the level left; conditions: time 21 day
Bel-7402 [12] = test: Cytotoxicity against human Bel-7402 cells incubated for 72 hrs by SRB assay; type: functional, cell-based; conditions: Bel-7402, 72 h
HepG2 [13] = test: Antiproliferative activity against doxorubicin resistant human HepG2 cells for 24 hrs in presence of c-phycocyanin by MTT assay; conditions: HepG2, 24 h
HepG2 [14] = test: Cytotoxicity against human HepG2 cells by SRB assay; type: functional, cell-based
SMMC-7721 [15] = test: Cytotoxicity against human SMMC-7721 cells by SRB assay; type: functional, cell-based
PLC-PRF-5 [16] = test: Cytotoxicity against human PLC-PRF-5 cells by SRB assay; type: functional, cell-based
HepG2 [17] = test: Antiproliferative activity against doxorubicin resistant human HepG2 cells at 50 uM incubated for 24 hrs by MTT assay relative to control; type: functional
HepG2 [18] = test: Antiproliferative activity against doxorubicin sensitive human HepG2 cells assessed as decrease in cell proliferation at 50 uM incubated for 24 hrs by MTT assay relative to control; type: functional; set-up: scale not given: the % may be the effect or the level left
HepG2 [19] = test: Antiproliferative activity against human HepG2 cells assessed as reduction in cell viability at 50 ug/ml measured after 24 hrs relative to control; type: functional, cell-based; conditions: HepG2, 24 h
PLC-PRF-5 [20] = test: Induction of cell cycle arrest in human PLC-PRF-5 cells assessed as accumulation of cells at G0/G1 phase at 200 nM incubated for 24 hrs relative to control; type: functional
PLC-PRF-5 [21] = test: Induction of cell cycle arrest in human PLC-PRF-5 cells assessed as accumulation of cells at G0/G1 phase at 100 nM incubated for 24 hrs relative to control; type: functional
SMMC-7721 [22] = test: Induction of cell cycle arrest in human SMMC-7721 cells assessed as accumulation of cells at G0/G1 phase at 200 nM incubated for 24 hrs relative to control; type: functional
SMMC-7721 [23] = test: Induction of cell cycle arrest in human SMMC-7721 cells assessed as accumulation of cells at G0/G1 phase at 100 nM incubated for 24 hrs relative to control; type: functional
SMMC-7721 [24] = test: Antitumor activity against human SMMC-7721 cells xenografted in mouse assessed as reduction in tumor growth at 25 microg/kg administered daily for 40 days relative to control; type: functional; set-up: scale not given: the % may be the effect or the level left; conditions: dose 25 µg/kg; time 40 day
SMMC-7721 [25] = test: Induction of cell cycle arrest in human SMMC-7721 cells assessed as accumulation of cells at G0/G1 phase at 50 nM incubated for 24 hrs relative to control; type: functional
SMMC-7721 [26] = test: Antitumor activity against human SMMC-7721 cells xenografted in mouse assessed as reduction in tumor growth at 50 microg/kg administered daily for 40 days relative to control; type: functional; set-up: scale not given: the % may be the effect or the level left; conditions: dose 50 µg/kg; time 40 day
PLC-PRF-5 [27] = test: Induction of cell cycle arrest in human PLC-PRF-5 cells assessed as accumulation of cells at G0/G1 phase at 50 nM incubated for 24 hrs relative to control; type: functional
HepG2 [28] = test: Anticancer activity against human HepG2 cells by SRB assay; type: functional, cell-based
Hep 3B2 = test: Cytotoxicity against human Hep3B cells; type: functional, cell-based
Huh-7 = test: Cytotoxicity against human Huh-7 cells; type: functional, cell-based
[29] = Antitumor activity against human HCCLM3 cells xenografted in BALB/c nude mouse assessed as reduction in Ki67 at 20 mg/kg measured for 14 days (reference value: 41.67+/-7.22% ); type: functional; set-up: scale not given: the % may be the effect or the level left; conditions: time 14 day
[30] = Antitumor activity against human HCCLM3 cells xenografted in BALB/c nude mouse assessed as inhibition of tumor growth at 20 mg/kg measured for 14 days relative to control; type: functional; conditions: HCCLM3, 336 h, time 14 day
[31] = […] of cell cycle arrest in human HCCLM3 cells assessed as accumulation of cells at G2/M phase at 25 uM relative to control; type: functional; set-up: scale not given: the % may be the effect or the level left
[32] = […] of cell cycle arrest in human HCCLM3 cells assessed as accumulation of cells at S phase at 25 uM relative to control; type: functional; set-up: scale not given: the % may be the effect or the level left
[33] = […] of cell cycle arrest in human HepG2 cells assessed as accumulation of cells at S phase at 50 uM relative to control; type: functional; set-up: scale not given: the % may be the effect or the level left
[34] = […] of cell cycle arrest in human HepG2 cells assessed as accumulation of cells at G2/M phase at 50 uM relative to control; type: functional; set-up: scale not given: the % may be the effect or the level left

IC50 (SMMC-7721 [2]): 19 µM
Compound: C[C@@]12C[C@@H](O)C[C@]3(C)C4=CC(=O)OCC4=C[C@@H](OC1=O)C23 (stereo partly specified)
Activity (SMMC-7721 [1]): 86.4%

IC50 (HepG2 [13]): 10 µM
Compound: COc1cccc2c1C(=O)c1c(O)c3c(c(O)c1C2=O)C[C@@](O)(C(=O)CO)C[C@@H]3O[C@H]1C[C@H](N)[C@H](O)[C@H](C)O1 [DOXORUBICIN]
IC50 (HepG2 [14]): 0.919 µM
IC50 (SMMC-7721 [15]): 0.706 µM
IC50 (PLC-PRF-5 [16]): 1.03 µM

IC50 (HepG2 [19]): 28.3 µM
Compound: H-RIRDAIAHGYIVDKV-OH

IC50 (HepG2 [28]): 17.2 µM
Compound: CC1=CC[C@@H]2[C@@H](CC[C@@]2(C)O)C(C)(C)[C@H]1CC[C@@H]1[C@@]2(C)CC[C@@H](O)C(C)(C)O[C@@H]2CC[C@]1(C)O

Further lines, the compound ahead of its results:

Compound: CC[C@H]1C=CCC[C@@]2(C[C@@H]3CC[C@]4(O)[C@H](C(=O)OCCCCCCCCCCCCCCCC(=O)N(CCCN)C[C@@H](O)CCN)[C@]5(CCC[C@@H](C)O5)NC(=N2)N34)O1
IC50 (HepG2 [3]): 0.18 µM

Compound: Cc1cc(O)cc(O)c1OC1C(=O)Oc2c(C)cc(O)c3c2C1c1cc(O)cc(O)c1C3=O (stereo unspecified)
Activity (H22 [4]): 62%
Activity (Bel-7402 [5]): 48.8%
Activity (Bel-7402 [6]): 51.2%
IC50 (SMMC-7721 [7]): < 4 µM
half-life [8]: 40 min
Activity (H22 [9]): 66%
Activity (Bel-7402 [10]): 59.9%
Activity (H22 [11]): 55%
IC50 (Bel-7402 [12]): < 6 µM

Compound: C/C=C1/C(=C\c2[nH]c(/C=C3N=C(/C=C4/NC(=O)C(CC)=C4C)C(C)=C/3CCC(=O)O)c(CCC(=O)O)c2C)NC(=O)C1C (stereo unspecified)
Activity (HepG2 [17]): 50%
Activity (HepG2 [18]): 40%

Compound: CCC/C=C/C=C/C(=O)O[C@H]1/C(=C/C(=O)OC)C[C@H]2C[C@H]([C@@H](C)O)OC(=O)C[C@H](O)C[C@@H]3C[C@H](OC(C)=O)C(C)(C)[C@](O)(C[C@@H]4C/C(=C/C(=O)OC)C[C@H](/C=C/C(C)(C)[C@]1(O)O2)O4)O3 [BRYOSTATIN 1]
Activity (PLC-PRF-5 [20]): 54%
Activity (PLC-PRF-5 [21]): 40%
Activity (SMMC-7721 [22]): 56%
Activity (SMMC-7721 [23]): 44%
Activity (SMMC-7721 [24]): 32%
Activity (SMMC-7721 [25]): 37%
Activity (SMMC-7721 [26]): 39%
Activity (PLC-PRF-5 [27]): 34%

Compound: COc1cc(O)c2c(c1O)C(=O)C1=C(C2=O)C(O)C(O)C(C)(O)C1 (stereo unspecified)
IC50 (Hep 3B2): 3.2 µM
IC50 (Huh-7): 9.6 µM

Compound: COc1cc2ccnc3c2c(c1OC)NC=C3 [AAPTAMINE]
Activity [29]: 72.2%
inhibition in vivo at 20 mg/kg [30]: 40.3%
Activity [31]: 50%
Activity [32]: 50%
Activity [33]: 50%
Activity [34]: 50%
